Measurements: paper PMC4106721, “Structure of a Membrane-Embedded Prenyltransferase Homologous to UBIAD1” (PLoS Biology, 2014)

Columns and labels:
Assay in all cases: isothermal titration calorimetry
Type in all cases: binding
AfUbiA [1] = target: T1, AfUbiA (Archaeoglobus fulgidus, UniProt O28625, R22A); settings: 2 mM MgCl2, pH 7.5, 25 °C, 4 mM DM
T1 construct: gene AF_1648; full gene in modified pET vector, N-terminal His-tag removed with TEV protease, expressed in E. coli BL21(DE3), DM-solubilised for ITC or in lipidic cubic phase for crystals; likely monomer
T1 sequence (O28625 entry or part of it R22A): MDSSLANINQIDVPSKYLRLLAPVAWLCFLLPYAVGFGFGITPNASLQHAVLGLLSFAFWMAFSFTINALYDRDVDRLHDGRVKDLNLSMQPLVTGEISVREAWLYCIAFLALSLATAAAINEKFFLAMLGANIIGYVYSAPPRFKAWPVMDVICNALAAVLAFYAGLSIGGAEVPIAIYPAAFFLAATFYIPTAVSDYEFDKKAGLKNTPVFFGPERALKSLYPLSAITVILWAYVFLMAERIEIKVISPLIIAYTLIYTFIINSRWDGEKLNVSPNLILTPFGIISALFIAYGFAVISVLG

AfUbiA [2] = target: T2, AfUbiA (Archaeoglobus fulgidus, UniProt O28625, D202A)
T2 construct: gene AF_1648; full gene in modified pET vector, N-terminal His-tag removed with TEV protease, expressed in E. coli BL21(DE3), DM-solubilised for ITC or in lipidic cubic phase for crystals; likely monomer
T2 sequence (O28625 entry or part of it D202A): as the sequence (O28625 entry or part of it R22A) above, with A22R, D202A counted along it

AfUbiA [3] = target: T3, AfUbiA (Archaeoglobus fulgidus, UniProt O28625, D198A)
T3 construct: gene AF_1648; full gene in modified pET vector, N-terminal His-tag removed with TEV protease, expressed in E. coli BL21(DE3), DM-solubilised for ITC or in lipidic cubic phase for crystals; likely monomer
T3 sequence (O28625 entry or part of it D198A): as the sequence (O28625 entry or part of it R22A) above, with A22R, D198A counted along it

AfUbiA [4] = target: T4, AfUbiA (Archaeoglobus fulgidus, UniProt O28625, N68A); settings: 2 mM MgCl2, pH 7.5, 25 °C, 4 mM DM
T4 construct: gene AF_1648; full gene in modified pET vector, N-terminal His-tag removed with TEV protease, expressed in E. coli BL21(DE3), DM-solubilised for ITC or in lipidic cubic phase for crystals; likely monomer
T4 sequence (O28625 entry or part of it N68A): as the sequence (O28625 entry or part of it R22A) above, with A22R, N68A counted along it

AfUbiA [5] = target: T5, AfUbiA (Archaeoglobus fulgidus, UniProt O28625, D72A); settings: 2 mM MgCl2, pH 7.5, 25 °C, 4 mM DM
T5 construct: gene AF_1648; full gene in modified pET vector, N-terminal His-tag removed with TEV protease, expressed in E. coli BL21(DE3), DM-solubilised for ITC or in lipidic cubic phase for crystals; likely monomer
T5 sequence (O28625 entry or part of it D72A): as the sequence (O28625 entry or part of it R22A) above, with A22R, D72A counted along it

AfUbiA [6] = target: T6, AfUbiA (Archaeoglobus fulgidus, UniProt O28625, K146A); settings: 2 mM MgCl2, pH 7.5, 25 °C, 4 mM DM
T6 construct: gene AF_1648; full gene in modified pET vector, N-terminal His-tag removed with TEV protease, expressed in E. coli BL21(DE3), DM-solubilised for ITC or in lipidic cubic phase for crystals; likely monomer
T6 sequence (O28625 entry or part of it K146A): as the sequence (O28625 entry or part of it R22A) above, with A22R, K146A counted along it

AfUbiA [7] = target: T7, AfUbiA (Archaeoglobus fulgidus, UniProt O28625)
T7 construct: gene AF_1648; full gene in modified pET vector, N-terminal His-tag removed with TEV protease, expressed in E. coli BL21(DE3), DM-solubilised for ITC or in lipidic cubic phase for crystals; likely monomer
T7 sequence (O28625 1-303): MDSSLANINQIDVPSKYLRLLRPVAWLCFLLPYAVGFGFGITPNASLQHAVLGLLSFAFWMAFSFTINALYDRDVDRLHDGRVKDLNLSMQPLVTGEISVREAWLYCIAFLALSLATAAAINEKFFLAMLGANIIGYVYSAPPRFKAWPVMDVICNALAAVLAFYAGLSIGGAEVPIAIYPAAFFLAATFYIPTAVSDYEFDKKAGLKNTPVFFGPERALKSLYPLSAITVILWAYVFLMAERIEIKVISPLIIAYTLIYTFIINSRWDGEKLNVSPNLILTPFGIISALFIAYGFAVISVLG

CC(C)=CCC/C(C)=C/COP(=O)(O)OP(=O)(O)O [geranyl diphosphate]
no binding detected (N.D.) (AfUbiA [1]): Four of the mutations completely abolished GPP binding | Kd (AfUbiA [2]): 67 ± 9 µM | Kd (AfUbiA [3]): 144 ± 13 µM | no binding detected (N.D.) (AfUbiA [4]): Four of the mutations completely abolished GPP binding | no binding detected (N.D.) (AfUbiA [5]): Four of the mutations completely abolished GPP binding | no binding detected (N.D.) (AfUbiA [6]): Four of the mutations completely abolished GPP binding | Kd (AfUbiA [7]): 3.2 ± 0.1 µM
